Peptide text beside a SMILES is read from it.
Tested on: TCGA-OV cohort
Test: TCGA-OV cohort analysis: survival and immune cell scores by aeTSA RNA expression and HLA allotype
Design: species or system human
Details: immune cell scores from RNA-Seq, ANOVA, p<0.05
Description: Clinical and genomic data from TCGA. Processed and normalized level 3 data with hg38 for HM27 methylation, DNA copy number variation, RNA-Seq gene expression as well as the clinical data were downloaded from the TCGA open-access database using the R package ‘TCGAbiolinks’ (31). Arm-level DNA copy number alterations were downloaded from Broad Institute TCGA Genome Data Analysis Center (doi:10.7908/C1P84B9Q).
Immune cell scores. Immune cell scores representing immune cell populations were estimated based on RNA-Seq data. For each tumor, scores were estimated as the average of log-transformed FPKM values of their marker genes as described by Danaher et al. (32).
Statistical analyses and data visualization. Analyses and figures were performed using the R v3.5.1 or Python v2.7.6. The ‘gplots’ package in R was used to generate heatmaps of TSA coding region expression in tumors. Correlation tests were done using R function ‘cor.test’ with the Spearman's method unless otherwise indicated. Tests involving comparisons of distributions were performed with ANOVA test, and pairwise comparisons between groups were performed by Wilcoxon rank sum test. Log-rank P values for survival analysis were calculated with the ‘survival’ package.

CSCC[C@H](NC(=O)[C@H](CCC(N)=O)NC(=O)[C@H](Cc1c[nH]cn1)NC(=O)[C@@H](NC(=O)[C@@H](N)CCCNC(=N)N)[C@@H](C)O)C(=O)N[C@@H](CC(N)=O)C(=O)N[C@H](C(=O)N[C@@H](Cc1ccccc1)C(=O)N[C@@H](CCC(N)=O)C(=O)N[C@@H](CCCNC(=N)N)C(=O)O)[C@@H](C)O (H-RTHQMNTFQR-OH; N-terminus and C-terminus assumed)
correlation of aeTSA expression and relevant HLA allotype with tumor infiltration by T cells and cytotoxic T cells: positive correlation
